This note sets out measurements from US20230255970A1, “COMPOSITIONS AND METHODS FOR TREATING PROLIFERATIVE DISEASES” (The Broad Institute, Inc., priority 2020, published 2023).

Assay [1] concerns YAP1 overexpression in U2OS cells. The experiment in a line: Cell Painting morphological profile matching to YAP1/TAZ overexpression signature. Format: cell-based, human. In short, it runs like this:
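Morphological profiles from Cell Painting (six fluorescent labels) in a single cell line at one time point, standardized plate-wise against control mean and SD, replicate profiles averaged feature-wise. Gene and compound signatures scored by Pearson correlation, large positive or negative correlations counted as matches.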

The subject of assay [2] is mouse sarcoma cells. The assay can be described thus: qRT-PCR of Yap1/NF-κB target genes in mouse sarcoma cells. Format: cell-based. The following applies: normalized to Hprt, Sdha, timecourse. The procedure: Mouse sarcoma cells were treated with 1 μM of compound for 48 h. RNA was isolated and qRT-PCR was performed for known NF-κB targets and proliferation-associated targets (i.e., Ki67, FOXM1). Target genes used to assess NF-κB inhibition specific to the cancer contexts are evaluated. For example, to test the efficacy of these compounds against NF-κB transcriptional activity in […] cells, expression of PHLDA1, IER2, and LITAF is determined. Compounds that alter expression of NF-κB target genes are assessed in proliferation studies using UPS, head and neck, prostate, and breast cancer cell lines previously associated with NF-κB dependence. IC50 studies and Western blot analyses are performed to evaluate total or phosphorylated p65 levels. Small molecules are then assessed to determine their mechanism of action. […] FIGS. 4-6 provide timecourse graphs showing the relative expression normalized to housekeeping genes.
Background: Quantitative PCR measures a nucleic acid by following its amplification.

Assay [3] deals with H9 human pluripotent stem cells. The experiment in a line: qPCR of YAP1, CTGF and CYR61 in H9 hPSCs. The assay is classed as cell-based. The following applies: 24 hrs. The procedure: (§1) H9 hPSCs (WiCell) were maintained on vitronectin (Thermo Fisher)-coated plates in Essential 8 (E8) medium. The cells were routinely passaged using 0.5 mM EDTA and treated with 5 μM Y-27632 dihydrochloride (Tocris) on the first day. For testing the effects of the small molecules, H9 hPSCs were seeded at 50K cells/cm^2 on vitronectin-coated plates in E8 medium supplemented with 5 μM Y-27632 dihydrochloride (day 0). On day 1, the medium was switched to E8 medium. On day 2, the medium was switched to E8 medium supplemented with the small molecules. Following overnight incubation, the cells were collected for subsequent analysis on day 3.
The RNA was extracted using TRIzol (Life Technologies) and Direct-zol™ RNA MiniPrep kit (Zymo Research) as per manufacturer instructions. The RNA was reverse transcribed using iScript cDNA synthesis kit (Bio-Rad). The qPCR was performed on CFX Connect (Bio-Rad) using iTaq Universal SYBR Green Supermix (Bio-Rad). GAPDH was used as a reference gene for normalization. The relative gene expression levels were determined using the ddCt method.

The test system of assay [4] is YAP1. The experiment in a line: YAP1 immunofluorescence in H9 cells. The assay is classed as cell-based, human. To be noted: 10 μM, 24 hours. The procedure:
as §1
The cells were fixed with 4% formaldehyde for 15 mins at room temperature. The cells were permeabilized and blocked with PBS containing 2% BSA and 0.1% Triton-X100. The cells were incubated with a primary antibody against YAP1 (sc-101199) at 1:1000 dilution in a blocking buffer overnight at 4° C. Then, a goat anti-mouse Alexa Fluor 488 conjugated secondary antibody was added for 1 hour at room temperature. […] Images were collected with Olympus FV1200 microscope and analyzed with CellProfiler. […] The cell cytoplasm was determined as the region outside nuclei but within the cell bodies. Then, an average pixel intensity of YAP in the nucleus and cytoplasm was calculated to determine YAP translocation

The test system of assay [5] is KP230 cells. The experiment in a line: qRT-PCR of Yap1 and target genes in KP230 cells. The assay is classed as cell-based, mouse. An excerpt: (§2) YAP1 cell culture and treatments: Eisinger lab: Murine KP230 cells, a Yap1-dependent cancer cell line, were derived from a tumor from the KP mouse model (Kras^G12/D; Trp53^f/fl), as described in Eisinger-Mathason, T. S. K. et al., Proc. Natl. Acad. Sci. U.S.A 112 (2015): E3402-11, which is hereby incorporated by reference in its entirety. STS-109 UPS cells were derived from a human UPS tumor and validated by Rebecca Gladdy, MD (Sinai Health System, Toronto, Ontario, Canada). TC32 cells were a gift from Patrick Grohar, MD, PhD (Children's Hospital of Philadelphia). HT-1080, HCT-116, and HEK293T cells were purchased from ATCC. KP230, HT-1080, and HEK-293T cells were grown in DMEM with 10% FBS, 1% L-glutamine, and 1% penicillin/streptomycin (P/S). […]
YAP1-related qRT-PCR: Total RNA from cultured cells was isolated with the QIAGEN RNeasy mini kit, and cDNA was synthesized with the High-Capacity RNA-to-cDNA kit (Life Technologies). qRT-PCR analysis was performed with TaqMan “best coverage” probes on a ViiA7 instrument. […] Relative expression was calculated using the ddCt method.

Assay [6] relates to STS-109 human UPS cells. The assay can be described thus: Proliferation assay, STS-109 cells. To be noted: 10 μM daily. Format: cell-based.
Description: as §2, with “(P/S). STS-109 cells were cultured in DMEM with 20% FBS, 1% L-glutamine, and 1% P/S. TC32 cells were grown in RPMI with 10% FBS, 1% L-glutamine, and 1% P/S. HCT-116 cells were cultured in McCoy's 5A medium with 10% FBS and 1% P/S. All cells were confirmed to be negative for mycoplasma contamination and were maintained in an incubator at 37C with 5% CO2.” for “(P/S).”
NB4A treatment: Cells were treated with 10 μM of each inhibitor or an equivalent volume of DMSO every 24 hours for 3-8 days, and counted with a hemocytometer with trypan blue exclusion daily (KP230, HT-1080, TC32, HCT-116), or every 2 days (STS-109).

Entries after “also recorded” stand apart in the source; their conditions may differ.

As to `c1ccc(CNc2ncnc3ccccc23)cc1` [BRD-K43796186, N-benzylquinazolin-4-amine], the “Cell Painting profile correlation with YAP1 overexpression” value in assay [1] came to 0.46. The “Corr. to YAP1 cluster” value in assay [1] (Pearson correlation of Cell Painting signatures, U2OS cells) is on record as 0.4622. Besides, in assay [2], the Ccl2 expression result is reported as “significantly decreased” and the Foxm1 expression entry was “reduced”. In addition, the Yap1 gene expression entry in assay [2] (listed as NB4A) is “not affected; also recorded: not effected”. Besides, in assay [3], the YAP1 expression result is “did not affect”; the “expression of YAP1 target genes (CTGF and CYR61)” value is “increased the expression of YAP1 target genes (CTGF and CYR61) in a dose-dependent manner”. For the same compound, the YAP1 nuclear localization result in assay [4] is on record as “increased YAP1 nuclear localization”. Further, the “transcription of Yap1, its sarcoma target genes (Foxm1, Ccl2, Hbegf, Birc5, Rela) and Amot” value in assay [5] is “did not regulate transcription”. Moreover, the proliferation result in assay [6] is listed as “did not affect the proliferation”.
